Each block holds one compound with its values, some of them ahead of it.
Key:
Test in all cases: radiometric filter-binding kinase assay
[1] = system: AKT1 (human), P31749 [S473D]
CDK2 CCNA2 (human) = CDK2 CCNA2 (human) (UniProt P20248+P24941)
CHEK1 (human) = CHEK1 (human) (UniProt O14757)
CHEK2 (human) = CHEK2 (human) (UniProt O96017)
CSK (human) = CSK (human) (UniProt P41240)
CaMK1 (human) = CaMK1 (human) (UniProt Q14012)
DYRK3 (human) = DYRK3 (human) (UniProt O43781)
EPHA2 (human) = EPHA2 (human) (UniProt P29317)
Chain of EPHA2 (human) (P29317 whole entry, looked up): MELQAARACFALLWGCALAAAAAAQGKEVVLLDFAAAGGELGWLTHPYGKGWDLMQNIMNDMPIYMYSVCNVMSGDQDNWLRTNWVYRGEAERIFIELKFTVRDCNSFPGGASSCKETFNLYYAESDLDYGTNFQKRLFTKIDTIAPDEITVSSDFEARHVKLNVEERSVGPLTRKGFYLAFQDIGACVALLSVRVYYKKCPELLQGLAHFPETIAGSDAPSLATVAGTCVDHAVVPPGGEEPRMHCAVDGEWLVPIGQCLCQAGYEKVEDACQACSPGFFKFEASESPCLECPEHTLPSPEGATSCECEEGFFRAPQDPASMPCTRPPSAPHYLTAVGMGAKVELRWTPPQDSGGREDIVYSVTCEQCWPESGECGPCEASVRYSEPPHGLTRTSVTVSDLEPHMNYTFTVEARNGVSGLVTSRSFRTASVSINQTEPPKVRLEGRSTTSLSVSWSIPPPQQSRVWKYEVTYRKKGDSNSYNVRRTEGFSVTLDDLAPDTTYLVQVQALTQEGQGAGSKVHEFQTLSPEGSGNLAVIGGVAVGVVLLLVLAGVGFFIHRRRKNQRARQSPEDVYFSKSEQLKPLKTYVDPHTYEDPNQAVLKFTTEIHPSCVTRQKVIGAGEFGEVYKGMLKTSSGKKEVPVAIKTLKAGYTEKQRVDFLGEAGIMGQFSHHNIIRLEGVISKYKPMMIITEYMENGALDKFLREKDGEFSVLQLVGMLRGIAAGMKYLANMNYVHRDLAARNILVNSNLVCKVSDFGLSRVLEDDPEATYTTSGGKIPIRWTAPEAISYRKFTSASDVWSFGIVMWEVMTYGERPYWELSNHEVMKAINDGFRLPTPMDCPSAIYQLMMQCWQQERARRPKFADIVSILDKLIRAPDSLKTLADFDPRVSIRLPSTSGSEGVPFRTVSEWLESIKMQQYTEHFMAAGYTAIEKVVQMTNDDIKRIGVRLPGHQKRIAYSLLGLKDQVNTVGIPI

EPHB3 (human) = EPHB3 (human) (UniProt P54753)
IKBKB (human) = IKBKB (human) (UniProt O14920)
LCK (mouse) = settings: accession and sequence are those of the human protein
MAP2K1 (human) = MAP2K1 (human) (UniProt Q02750)
MAPK8 (human) = MAPK8 (human) (UniProt P45983)
MST4 (human) = MST4 (human) (UniProt Q9P289)
MYLK (human) = MYLK (human) (UniProt Q15746)
PAK4 (human) = PAK4 (human) (UniProt O96013)
PAK6 (human) = PAK6 (human) (UniProt Q9NQU5)
Chain of PAK6 (human) (Q9NQU5 whole entry, looked up): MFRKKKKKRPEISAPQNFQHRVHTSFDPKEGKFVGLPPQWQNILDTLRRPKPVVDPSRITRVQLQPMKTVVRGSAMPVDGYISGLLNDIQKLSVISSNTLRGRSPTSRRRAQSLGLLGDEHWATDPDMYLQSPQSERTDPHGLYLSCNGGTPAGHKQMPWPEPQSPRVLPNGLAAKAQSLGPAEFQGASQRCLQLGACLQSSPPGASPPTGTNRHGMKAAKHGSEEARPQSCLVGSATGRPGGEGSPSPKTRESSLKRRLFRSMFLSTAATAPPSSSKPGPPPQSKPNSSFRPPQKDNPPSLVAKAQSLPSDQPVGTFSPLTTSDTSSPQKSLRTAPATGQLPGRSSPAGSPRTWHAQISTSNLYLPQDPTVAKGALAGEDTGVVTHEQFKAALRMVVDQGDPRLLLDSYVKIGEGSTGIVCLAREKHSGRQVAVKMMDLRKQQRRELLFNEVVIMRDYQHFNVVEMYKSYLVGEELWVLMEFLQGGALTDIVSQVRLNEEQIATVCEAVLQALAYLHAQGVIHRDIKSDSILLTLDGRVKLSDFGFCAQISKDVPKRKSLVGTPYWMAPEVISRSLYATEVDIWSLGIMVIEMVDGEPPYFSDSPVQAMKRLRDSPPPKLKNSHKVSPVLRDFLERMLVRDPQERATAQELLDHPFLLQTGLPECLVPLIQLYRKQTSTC

PKN2 (human) = PKN2 (human) (UniProt Q16513)
Chain of PKN2 (human) (Q16513 whole entry, looked up): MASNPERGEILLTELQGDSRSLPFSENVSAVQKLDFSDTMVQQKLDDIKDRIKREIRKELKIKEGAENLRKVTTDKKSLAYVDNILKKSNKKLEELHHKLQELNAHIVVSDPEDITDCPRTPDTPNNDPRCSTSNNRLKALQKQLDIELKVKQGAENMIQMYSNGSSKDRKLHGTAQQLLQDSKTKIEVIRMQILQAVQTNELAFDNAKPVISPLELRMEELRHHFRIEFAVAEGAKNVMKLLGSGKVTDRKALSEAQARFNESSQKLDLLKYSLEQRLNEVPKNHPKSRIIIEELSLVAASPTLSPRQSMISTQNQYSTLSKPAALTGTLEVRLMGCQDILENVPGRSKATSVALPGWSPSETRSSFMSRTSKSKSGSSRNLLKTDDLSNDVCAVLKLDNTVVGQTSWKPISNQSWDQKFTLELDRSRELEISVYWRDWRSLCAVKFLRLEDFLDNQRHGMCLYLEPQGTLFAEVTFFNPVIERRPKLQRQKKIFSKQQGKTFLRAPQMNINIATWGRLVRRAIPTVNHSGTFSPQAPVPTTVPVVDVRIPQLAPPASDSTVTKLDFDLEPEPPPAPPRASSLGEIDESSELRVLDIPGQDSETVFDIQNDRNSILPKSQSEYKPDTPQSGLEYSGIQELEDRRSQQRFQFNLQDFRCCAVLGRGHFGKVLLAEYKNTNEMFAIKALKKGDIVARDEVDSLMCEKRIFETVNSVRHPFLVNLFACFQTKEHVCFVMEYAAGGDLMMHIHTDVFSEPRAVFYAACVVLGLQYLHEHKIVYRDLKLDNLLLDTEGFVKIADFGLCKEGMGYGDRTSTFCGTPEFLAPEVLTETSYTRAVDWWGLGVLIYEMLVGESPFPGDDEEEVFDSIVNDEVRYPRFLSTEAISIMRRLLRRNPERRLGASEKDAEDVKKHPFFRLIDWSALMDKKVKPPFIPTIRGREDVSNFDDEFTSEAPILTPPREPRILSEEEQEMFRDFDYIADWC

ROCK2 (rat) = settings: accession and sequence are those of the human protein
RPS6KA3 KD1 KD2 (human) = RPS6KA3 KD1 KD2 (human) (UniProt P51812)
Chain of RPS6KA3 KD1 KD2 (human) (P51812 whole entry, looked up): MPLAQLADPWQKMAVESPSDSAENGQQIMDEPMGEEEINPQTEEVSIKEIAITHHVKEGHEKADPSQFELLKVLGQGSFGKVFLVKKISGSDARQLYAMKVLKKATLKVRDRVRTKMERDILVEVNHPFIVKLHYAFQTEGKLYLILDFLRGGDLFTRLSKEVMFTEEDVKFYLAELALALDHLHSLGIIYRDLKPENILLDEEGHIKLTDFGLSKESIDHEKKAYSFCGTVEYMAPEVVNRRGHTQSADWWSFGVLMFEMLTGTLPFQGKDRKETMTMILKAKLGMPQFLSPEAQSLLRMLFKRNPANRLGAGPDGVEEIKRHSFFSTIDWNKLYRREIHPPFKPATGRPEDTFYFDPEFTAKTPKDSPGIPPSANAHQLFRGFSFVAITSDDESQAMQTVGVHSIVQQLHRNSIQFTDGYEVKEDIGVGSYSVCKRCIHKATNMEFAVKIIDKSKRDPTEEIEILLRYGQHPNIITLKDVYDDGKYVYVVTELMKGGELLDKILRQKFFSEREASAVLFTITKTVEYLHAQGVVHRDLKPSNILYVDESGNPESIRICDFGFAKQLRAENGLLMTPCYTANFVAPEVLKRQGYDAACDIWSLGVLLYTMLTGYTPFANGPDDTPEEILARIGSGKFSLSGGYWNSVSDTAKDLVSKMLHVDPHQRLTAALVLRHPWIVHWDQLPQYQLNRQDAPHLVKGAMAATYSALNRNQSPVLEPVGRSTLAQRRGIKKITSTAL

SRC (human) = SRC (human) (UniProt P12931)
Chain of SRC (human) (P12931 whole entry, looked up): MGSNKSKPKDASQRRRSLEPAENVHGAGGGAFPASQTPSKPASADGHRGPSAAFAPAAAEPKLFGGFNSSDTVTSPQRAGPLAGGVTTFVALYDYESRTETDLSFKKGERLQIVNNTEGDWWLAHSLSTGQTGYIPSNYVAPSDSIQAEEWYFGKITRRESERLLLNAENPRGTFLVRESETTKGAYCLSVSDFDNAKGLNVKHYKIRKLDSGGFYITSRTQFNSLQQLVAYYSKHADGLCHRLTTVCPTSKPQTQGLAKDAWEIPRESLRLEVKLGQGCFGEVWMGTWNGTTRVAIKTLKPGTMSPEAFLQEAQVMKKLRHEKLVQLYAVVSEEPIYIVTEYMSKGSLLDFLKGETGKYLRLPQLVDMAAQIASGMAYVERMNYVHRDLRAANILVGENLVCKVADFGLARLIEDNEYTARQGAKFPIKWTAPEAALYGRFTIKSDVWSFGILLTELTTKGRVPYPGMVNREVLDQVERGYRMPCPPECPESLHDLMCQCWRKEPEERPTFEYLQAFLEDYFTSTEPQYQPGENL

TBK1 (human) = TBK1 (human) (UniProt Q9UHD2)
AURKB (human) = AURKB (human) (UniProt Q96GD4)

Chain of DYRK3 (human) (O43781 whole entry, looked up): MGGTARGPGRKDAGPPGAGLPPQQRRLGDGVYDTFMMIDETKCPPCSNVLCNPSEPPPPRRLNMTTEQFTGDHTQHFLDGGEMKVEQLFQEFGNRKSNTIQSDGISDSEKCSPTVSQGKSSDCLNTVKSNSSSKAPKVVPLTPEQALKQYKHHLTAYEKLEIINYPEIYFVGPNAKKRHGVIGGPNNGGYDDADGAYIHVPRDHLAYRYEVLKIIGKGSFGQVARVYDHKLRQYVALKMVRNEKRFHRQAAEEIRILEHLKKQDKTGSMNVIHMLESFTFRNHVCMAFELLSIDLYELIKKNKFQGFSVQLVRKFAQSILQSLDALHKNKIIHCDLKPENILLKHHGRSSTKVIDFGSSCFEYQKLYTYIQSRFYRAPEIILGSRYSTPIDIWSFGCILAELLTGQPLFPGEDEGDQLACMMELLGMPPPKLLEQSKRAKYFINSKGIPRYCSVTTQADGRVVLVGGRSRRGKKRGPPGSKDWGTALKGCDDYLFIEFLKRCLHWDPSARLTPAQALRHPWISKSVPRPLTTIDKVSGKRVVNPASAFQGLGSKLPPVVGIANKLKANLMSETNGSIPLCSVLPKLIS
Chain of AKT1 (human), P31749 [S473D] (P31749 whole entry S473D, looked up): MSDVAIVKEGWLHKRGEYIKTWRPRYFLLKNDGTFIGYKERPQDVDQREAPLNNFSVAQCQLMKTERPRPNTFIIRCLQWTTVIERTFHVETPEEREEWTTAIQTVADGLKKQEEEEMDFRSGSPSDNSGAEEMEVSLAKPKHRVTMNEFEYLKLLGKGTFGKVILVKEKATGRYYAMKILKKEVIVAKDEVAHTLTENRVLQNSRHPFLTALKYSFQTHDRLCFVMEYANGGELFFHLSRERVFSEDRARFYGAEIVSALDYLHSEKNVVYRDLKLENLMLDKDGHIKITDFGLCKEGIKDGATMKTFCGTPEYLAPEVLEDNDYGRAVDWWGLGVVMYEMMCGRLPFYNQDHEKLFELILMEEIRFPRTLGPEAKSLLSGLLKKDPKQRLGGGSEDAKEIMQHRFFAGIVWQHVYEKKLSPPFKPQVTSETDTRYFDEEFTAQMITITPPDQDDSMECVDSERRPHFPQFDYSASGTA

- residual activity ([1]; compound 0.1 µM): 85%
- residual activity ([1]; compound 1.0 µM): 69%
- residual activity ([1]; compound 10.0 µM): 62%
- residual activity (CDK2 CCNA2 (human); compound 0.1 µM): 63%
- residual activity (CDK2 CCNA2 (human); compound 1.0 µM): 14%
- residual activity (CDK2 CCNA2 (human); compound 10.0 µM): 6%
- residual activity (CHEK1 (human); compound 0.1 µM): 85%
- residual activity (CHEK1 (human); compound 1.0 µM): 4%
- residual activity (CHEK1 (human); compound 10.0 µM): 1%
- residual activity (CHEK2 (human); compound 0.1 µM): -1%
- residual activity (CHEK2 (human); compound 1.0 µM): -5%
- residual activity (CHEK2 (human); compound 10.0 µM): 1%
- residual activity (CSK (human); compound 0.1 µM): 98%
- residual activity (CSK (human); compound 1.0 µM): 69%
- residual activity (CSK (human); compound 10.0 µM): 42%
- residual activity (CaMK1 (human); compound 0.1 µM): 112%
- residual activity (CaMK1 (human); compound 1.0 µM): 69%
- residual activity (CaMK1 (human); compound 10.0 µM): 19%
- residual activity (DYRK3 (human); compound 0.1 µM): 19%
- residual activity (DYRK3 (human); compound 1.0 µM): 4%
- residual activity (DYRK3 (human); compound 10.0 µM): 1%
- residual activity (EPHA2 (human); compound 0.1 µM): 93%
- residual activity (EPHA2 (human); compound 1.0 µM): 54%
- residual activity (EPHA2 (human); compound 10.0 µM): 20%
- residual activity (EPHB3 (human); compound 0.1 µM): 107%
- residual activity (EPHB3 (human); compound 1.0 µM): 90%
- residual activity (EPHB3 (human); compound 10.0 µM): 53%
- residual activity (IKBKB (human); compound 0.1 µM): 75%
- residual activity (IKBKB (human); compound 10.0 µM): 26%
- residual activity (LCK (mouse); compound 0.1 µM): 44%
- residual activity (LCK (mouse); compound 1.0 µM): 10%
- residual activity (LCK (mouse); compound 10.0 µM): 3%
- residual activity (MAP2K1 (human); compound 0.1 µM): 8%
- residual activity (MAP2K1 (human); compound 1.0 µM): 1%
- residual activity (MAP2K1 (human); compound 10.0 µM): 2%
- residual activity (MAPK8 (human); compound 0.1 µM): 124%
- residual activity (MAPK8 (human); compound 1.0 µM): 99%
- residual activity (MAPK8 (human); compound 10.0 µM): 48%
- residual activity (MST4 (human); compound 1.0 µM): 18%
- residual activity (MST4 (human); compound 10.0 µM): 21%
- residual activity (MYLK (human); compound 0.1 µM): 54%
- residual activity (MYLK (human); compound 1.0 µM): 11%
- residual activity (MYLK (human); compound 10.0 µM): 1%
- residual activity (PAK4 (human); compound 0.1 µM): 64%
- residual activity (PAK4 (human); compound 1.0 µM): 31%
- residual activity (PAK6 (human); compound 0.1 µM): 86%
- residual activity (PAK6 (human); compound 1.0 µM): 77%
- residual activity (PAK6 (human); compound 10.0 µM): 38%
- residual activity (PKN2 (human); compound 0.1 µM): 25%
- residual activity (PKN2 (human); compound 1.0 µM): 5%
- residual activity (PKN2 (human); compound 10.0 µM): 6%
- residual activity (ROCK2 (rat); compound 1.0 µM): 37%
- residual activity (ROCK2 (rat); compound 10.0 µM): 7%
- residual activity (RPS6KA3 KD1 KD2 (human); compound 0.1 µM): 38%
- residual activity (RPS6KA3 KD1 KD2 (human); compound 1.0 µM): 32%
- residual activity (RPS6KA3 KD1 KD2 (human); compound 10.0 µM): 22%
- residual activity (SRC (human); compound 0.1 µM): 41%
- residual activity (SRC (human); compound 1.0 µM): 7%
- residual activity (SRC (human); compound 10.0 µM): 1%
- residual activity (TBK1 (human); compound 0.1 µM): 27%
- residual activity (TBK1 (human); compound 1.0 µM): 7%
- residual activity (TBK1 (human); compound 10.0 µM): 11%
SMILES: NC(=O)Nc1ccc2c(c1)/C(=C/c1cc(-c3cccnc3)c[nH]1)C(=O)N2

- residual activity ([1]; compound 1.0 µM): 107%
- residual activity ([1]; compound 10.0 µM): 105%
- residual activity (AURKB (human); compound 1.0 µM): 110%
- residual activity (AURKB (human); compound 10.0 µM): 100%
- residual activity (CDK2 CCNA2 (human); compound 1.0 µM): 87%
- residual activity (CDK2 CCNA2 (human); compound 10.0 µM): 81%
- residual activity (CHEK1 (human); compound 1.0 µM): 102%
- residual activity (CHEK1 (human); compound 10.0 µM): 120%
- residual activity (CHEK2 (human); compound 1.0 µM): 81%
- residual activity (CHEK2 (human); compound 10.0 µM): 101%
- residual activity (CSK (human); compound 1.0 µM): 98%
- residual activity (CSK (human); compound 10.0 µM): 97%
- residual activity (CaMK1 (human); compound 1.0 µM): 95%
- residual activity (CaMK1 (human); compound 10.0 µM): 62%
- residual activity (DYRK3 (human); compound 1.0 µM): 83%
- residual activity (DYRK3 (human); compound 10.0 µM): 81%
- residual activity (EPHA2 (human); compound 1.0 µM): 103%
- residual activity (EPHA2 (human); compound 10.0 µM): 113%
- residual activity (EPHB3 (human); compound 10.0 µM): 115%
- residual activity (LCK (mouse); compound 1.0 µM): 106%
- residual activity (LCK (mouse); compound 10.0 µM): 98%
- residual activity (MAP2K1 (human); compound 1.0 µM): 105%
- residual activity (MAP2K1 (human); compound 10.0 µM): 90%
- residual activity (MAPK8 (human); compound 1.0 µM): 83%
- residual activity (MAPK8 (human); compound 10.0 µM): 74%
- residual activity (MST4 (human); compound 1.0 µM): 104%
- residual activity (MST4 (human); compound 10.0 µM): 83%
- residual activity (MYLK (human); compound 1.0 µM): 92%
- residual activity (MYLK (human); compound 10.0 µM): 74%
- residual activity (PAK4 (human); compound 1.0 µM): 87%
- residual activity (PAK4 (human); compound 10.0 µM): 66%
- residual activity (PAK6 (human); compound 1.0 µM): 97%
- residual activity (PAK6 (human); compound 10.0 µM): 109%
- residual activity (PKN2 (human); compound 1.0 µM): 102%
- residual activity (PKN2 (human); compound 10.0 µM): 92%
- residual activity (ROCK2 (rat); compound 1.0 µM): 99%
- residual activity (ROCK2 (rat); compound 10.0 µM): 91%
- residual activity (RPS6KA3 KD1 KD2 (human); compound 1.0 µM): 94%
- residual activity (SRC (human); compound 1.0 µM): 87%
- residual activity (SRC (human); compound 10.0 µM): 70%
- residual activity (TBK1 (human); compound 1.0 µM): 102%
- residual activity (TBK1 (human); compound 10.0 µM): 88%
SMILES: Cc1cc(SCc2sc(-c3ccc(C(F)(F)F)cc3)nc2C)ccc1OCC(=O)O
